Measured values reported in patent publication US7829560B2, “1,4-disubstituted naphthalenes as inhibitors of P38 MAP kinase” (Arqule, Inc., priority 2004, dated 2010).

Assays:
[1] = system: TNFα release from THP-1 cells; test: Inhibition of TNFα release from LPS-stimulated THP-1 cells, ELISA; assay type: cell-based; settings: Homo sapiens, THP-1, THP-1 cells, read-out: [CELL] THP-1, IC50, TNF ALPHA, ELISA
Summary of the method: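 Human THP-1 monocytes, 10^6 cells/ml in RPMI with 10% FBS, no serum or 1% HSA, preincubated 30 min at 37 °C with compound (≤0.5% DMSO), then stimulated with 10 μg/ml LPS for 18 h. Supernatant TNFα measured by ELISA; IC50 from non-linear dose-response regression.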

[2] = target: T1, p38α (Homo sapiens, UniProt Q16539); test: p38 MAP Kinase assay: inhibition of ATF2 phosphorylation, ELISA; assay type: biochemical; settings: ATF2 phosphorylation; read-out: [ENZ] P38 ALPHA, IC50, ELISA
T1 construct: p38 MAP Kinases are recombinant human full-length proteins with an amino-terminal GST fusion; GST (N); purchased Upstate Biotechnology Inc; host or cells: E. coli
Summary of the method: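 GST-tagged full-length human p38 MAP kinase with GST-ATF2 (aa 19–96; 1.25 μM) and 40 μM ATP in HEPES pH 7.5 buffer, without (Method I) or with (Method II) 1% human serum albumin. Compound pre-incubated 15 min at room temperature; reaction 30 min at 37 °C; ATF2 Thr69 phosphorylation measured by ELISA (A450).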

T1 sequence (Q16539 whole entry, the tested form may be a part): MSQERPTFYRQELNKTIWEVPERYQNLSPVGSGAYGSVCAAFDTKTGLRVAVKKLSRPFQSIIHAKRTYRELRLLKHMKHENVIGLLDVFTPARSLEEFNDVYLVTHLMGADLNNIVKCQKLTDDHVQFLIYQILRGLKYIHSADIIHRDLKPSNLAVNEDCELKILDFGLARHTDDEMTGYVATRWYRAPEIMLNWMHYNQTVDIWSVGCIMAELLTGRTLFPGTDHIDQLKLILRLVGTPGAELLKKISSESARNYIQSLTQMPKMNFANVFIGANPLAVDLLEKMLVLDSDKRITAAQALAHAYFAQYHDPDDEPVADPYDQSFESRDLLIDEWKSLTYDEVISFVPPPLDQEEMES

IC50 [1] [nM] | melting point [°C] | IC50 [2] [nM] | SMILES
607 | 94 to 96 | 44.6 | CC(C)N(C)c1nccc(Oc2ccc(NC(=O)c3cc(F)cc(N4CCOCC4)c3)c3ccccc23)n1 [Compound B322, 3-Fluoro-N-[4-({2-[isopropyl(methyl)amino]pyrimidin-4-yl}oxy)-1-naphthyl]-5-morpholin-4-ylbenzamide]
36.1 | 135 to 136 | 11.9 | O=C(Nc1ccc(Oc2ccnc(NC3CCCCC3)n2)c2ccccc12)c1cc(F)cc(N2CCOCC2)c1 [Compound B323, N-(4-{[2-(Cyclohexylamino)pyrimidin-4-yl]oxy}-1-naphthyl)-3-fluoro-5-morpholin-4-ylbenzamide]
> 1000 | 190 to 191 | 19 | O=C(Nc1ccc(Oc2ccnc(N3CCCCC3)n2)c2ccccc12)c1cc(F)cc(N2CCOCC2)c1 [Compound B324, 3-Fluoro-5-morpholin-4-yl-N-{4-[(2-piperidin-1-ylpyrimidin-4-yl)oxy]-1-naphthyl}benzamide]
247 | 153 to 154 | 34.4 | O=C(Nc1ccc(Oc2ccnc(-n3ccnc3)n2)c2ccccc12)c1cc(F)cc(N2CCOCC2)c1 [Compound B325, 3-Fluoro-N-(4-{[2-(1H-imidazol-1-yl)pyrimidin-4-yl]oxy}-1-naphthyl)-5-morpholin-4-ylbenzamide]
76.8 | 112 to 114 | 3.1 | O=C(Nc1ccc(Oc2ccnc(NCCN3CCOCC3)n2)c2ccccc12)c1cc(F)cc(N2CCOCC2)c1 [Compound B326, 3-Fluoro-5-morpholin-4-yl-N-[4-({2-[(2-morpholin-4-ylethyl)amino]pyrimidin-4-yl}oxy)-1-naphthyl]benzamide]
24.8 | 103 to 105 | 2.1 | O=C(Nc1ccc(Oc2ccnc(NCC3CCCO3)n2)c2ccccc12)c1cc(F)cc(N2CCOCC2)c1 (stereo not drawn) [Compound B327, 3-Fluoro-5-morpholin-4-yl-N-[4-({2-[(tetrahydrofuran-2-ylmethyl)amino]pyrimidin-4-yl}oxy)-1-naphthyl]benzamide]
149 | 195 to 197 | 4.4 | CN1CCN(c2nccc(Oc3ccc(NC(=O)c4cc(F)cc(N5CCOCC5)c4)c4ccccc34)n2)CC1 [Compound B328, 3-Fluoro-N-(4-{[2-(4-methylpiperazin-1-yl)pyrimidin-4-yl]oxy}-1-naphthyl)-5-morpholin-4-ylbenzamide]
237 | 110 to 112 | 3.7 | O=C(Nc1ccc(Oc2ccnc(NC3CCC3)n2)c2ccccc12)c1cc(F)cc(N2CCOCC2)c1 [Compound B331, N-(4-{[2-(Cyclobutylamino)pyrimidin-4-yl]oxy}-1-naphthyl)-3-fluoro-5-morpholin-4-ylbenzamide]
252 | 106 to 108 | 5 | O=C(Nc1ccc(Oc2ccnc(N3CCC(O)CC3)n2)c2ccccc12)c1cc(F)cc(N2CCOCC2)c1 [Compound B332, 3-Fluoro-N-(4-{[2-(4-hydroxypiperidin-1-yl)pyrimidin-4-yl]oxy}-1-naphthyl)-5-morpholin-4-ylbenzamide]
276 | 205 to 207 | 8.2 | O=C(Nc1ccc(Oc2ccnc(N3CCCC3)n2)c2ccccc12)c1cc(F)cc(N2CCOCC2)c1 [Compound B334, 3-Fluoro-5-morpholin-4-yl-N-{4-[(2-pyrrolidin-1-ylpyrimidin-4-yl)oxy]-1-naphthyl}benzamide]
> 1000 | 117 to 118 | 22.2 | CC1CCN(c2nccc(Oc3ccc(NC(=O)c4cc(F)cc(N5CCOCC5)c4)c4ccccc34)n2)CC1 [Compound B335, 3-Fluoro-N-(4-{[2-(4-methylpiperidin-1-yl)pyrimidin-4-yl]oxy}-1-naphthyl)-5-morpholin-4-ylbenzamide]
5.8 | 116 to 117 | 2.5 | O=C(Nc1ccc(Oc2ccnc(NCC3CC3)n2)c2ccccc12)c1cc(F)cc(N2CCOCC2)c1 [Compound B336, N-[4-({2-[(Cyclopropylmethyl)amino]pyrimidin-4-yl}oxy)-1-naphthyl]-3-fluoro-5-morpholin-4-ylbenzamide]
65.6 | 116 to 117 | 33.3 | CC1CCC(Nc2nccc(Oc3ccc(NC(=O)c4cc(F)cc(N5CCOCC5)c4)c4ccccc34)n2)CC1 (stereo not drawn) [Compound B337, 3-Fluoro-N-[4-({2-[(4-methylcyclohexyl)amino]pyrimidin-4-yl}oxy)-1-naphthyl]-5-morpholin-4-ylbenzamide]
60.9 | 95 to 97 | 17.1 | O=C(Nc1ccc(Oc2ccnc(NCCN3CCCC3)n2)c2ccccc12)c1cc(F)cc(N2CCOCC2)c1 [Compound B338, 3-Fluoro-5-morpholin-4-yl-N-[4-({2-[(2-pyrrolidin-1-ylethyl)amino]pyrimidin-4-yl}oxy)-1-naphthyl]benzamide]
347 | 137 to 139 | 39.1 | O=C(Nc1ccc(Oc2ccnc(N3CCC(O)C3)n2)c2ccccc12)c1cc(F)cc(N2CCOCC2)c1 (stereo not drawn) [Compound B339, 3-Fluoro-N-(4-{[2-(3-hydroxypyrrolidin-1-yl)pyrimidin-4-yl]oxy}-1-naphthyl)-5-morpholin-4-ylbenzamide]
> 1000 | 131 to 133 | 55.9 | CC(C)(C)OC(=O)N1CCN(c2nccc(Oc3ccc(NC(=O)c4cc(F)cc(N5CCOCC5)c4)c4ccccc34)n2)CC1 [Compound B340, t-Butyl-4-[4-({4-[(3-fluoro-5-morpholin-4-ylbenzoyl)amino]-1-naphthyl}oxy)pyrimidin-2-yl]piperazine-1-carboxylate]
590 | 122 to 124 | 10.5 | CCOC(=O)N1CCC(Nc2nccc(Oc3ccc(NC(=O)c4cc(F)cc(N5CCOCC5)c4)c4ccccc34)n2)CC1 [Compound B341, Ethyl-4-{[4-({4-[(3-fluoro-5-morpholin-4-ylbenzoyl)amino]-1-naphthyl}oxy)pyrimidin-2-yl]amino}piperidine-1-carboxylate]
61.5 | 115 to 117 | 22.3 | CN(C)[C@@H]1CCN(c2nccc(Oc3ccc(NC(=O)c4cc(F)cc(N5CCOCC5)c4)c4ccccc34)n2)C1 [Compound B342, N-[4-({2-[(3R)-3-(dimethylamino)pyrrolidin-1-yl]pyrimidin-4-yl}oxy)-1-naphthyl]-3-fluoro-5-morpholin-4-ylbenzamide]
136 | 98 to 100 | 15.2 | O=C(Nc1ccc(Oc2ccnc(NCCN3CCCCC3)n2)c2ccccc12)c1cc(F)cc(N2CCOCC2)c1 [Compound B343, 3-Fluoro-5-morpholin-4-yl-N-[4-({2-[(2-piperidin-1-ylethyl)amino]pyrimidin-4-yl}oxy)-1-naphthyl]benzamide]
6.1 | 100 to 101 | 1.1 | CN1CCCC1CCNc1nccc(Oc2ccc(NC(=O)c3cc(F)cc(N4CCOCC4)c3)c3ccccc23)n1 (stereo not drawn) [Compound B344, 3-Fluoro-N-{4-[(2-{[2-(1-methylpyrrolidin-2-yl)ethyl]amino}pyrimidin-4-yl)oxy]-1-naphthyl}-5-morpholin-4-ylbenzamide]
79.6 | 185 to 186 | 13.3 | CCN1CCN(c2nccc(Oc3ccc(NC(=O)c4cc(F)cc(N5CCOCC5)c4)c4ccccc34)n2)CC1 [Compound B345, N-(4-{[2-(4-Ethylpiperazin-1-yl)pyrimidin-4-yl]oxy}-1-naphthyl)-3-fluoro-5-morpholin-4-ylbenzamide]
431 | 180 to 181 | 5.2 | O=C(Nc1ccc(Oc2ccnc(N3CCCC(O)C3)n2)c2ccccc12)c1cc(F)cc(N2CCOCC2)c1 (stereo not drawn) [Compound B346, 3-Fluoro-N-(4-{[2-(3-hydroxypiperidin-1-yl)pyrimidin-4-yl]oxy}-1-naphthyl)-5-morpholin-4-ylbenzamide]
42.2 | 150 to 151 | 13.9 | O=C(Nc1ccc(Oc2ccnc(NC3CCS(=O)(=O)C3)n2)c2ccccc12)c1cc(F)cc(N2CCOCC2)c1 (stereo not drawn) [Compound B347, N-[4-({2-[(1,1-Dioxidotetrahydro-3-thienyl)amino]pyrimidin-4-yl}oxy)-1-naphthyl]-3-fluoro-5-morpholin-4-ylbenzamide]
> 1000 | 102 to 104 | 166 | CC1CC(C)CN(c2nccc(Oc3ccc(NC(=O)c4cc(F)cc(N5CCOCC5)c4)c4ccccc34)n2)C1 (stereo not drawn) [Compound B348, N-(4-{[2-(3,5-Dimethylpiperidin-1-yl)pyrimidin-4-yl]oxy}-1-naphthyl)-3-fluoro-5-morpholin-4-ylbenzamide]
74.7 | 111 to 112 | 18.7 | CN(CC1OCCO1)c1nccc(Oc2ccc(NC(=O)c3cc(F)cc(N4CCOCC4)c3)c3ccccc23)n1 [Compound B349, N-[4-({2-[(1,3-Dioxolan-2-ylmethyl)(methyl)amino]pyrimidin-4-yl}oxy)-1-naphthyl]-3-fluoro-5-morpholin-4-ylbenzamide]
